Experimental data as given in patent US5599815A, “Antipsychotic benzoisothiazolyl piperazine derivatives” (Meiji Seika Kabushiki Kaisha, priority 1993, dated 1997).
Read-outs that look alike come from different tables or passages of the source.

Key:
[1] = test system: catalepsy in mice; assay: Cataleptogenic activity (extrapyramidal side effect): catalepsy provoking effect in mice; settings: ip
Experimental: (§1) The extrapyramidal activity was evaluated on the basis of the catalepsy provoking effect as a representative pharmacological evaluation method of the extrapyramidal effect. Male ddY mice having a body weight of 25-35 g which were divided into groups consisting of 3-6 animals were subjected to the test. The compound of the present invention was administered intraperitoneally to observe catalepsy after 20, 30 and 40 minutes, respectively. Catalepsy was judged as positive in such cases that a mouse whose front paw was compulsorily hung up on an iron bar having a diameter of 1 mm and horizontally laid at a height of 3 cm remained in such a strained posture for more than 30 seconds.

[2] = as above; settings: mouse, in vivo, ip
Experimental: as §1

[3] = test system: hyper locomotion induced by methamphetamine in mice; assay: Anti-methamphetamine effect (antipsychotic activity): suppression of hyper locomotion induced by methamphetamine in mice; type: in vivo, mice (male ddY); settings: ip; for ED50: Mus musculus, read-out: Anti-methamphetamine effect ED50
Experimental: Antipsychotic activity was evaluated on the basis of the suppressive activity on the stimulation of hyper locomotion induced by methamphetamine in mice. Male ddY mice having a weight of 25-35 g were divided into groups consisting of 3-6 animals. The mouse was subcutaneously administered with methamphetamine (2 mg/kg) fifteen minutes before the compound of the present invention was intraperitoneally administered. After further fifteen minutes, the animal was then placed in an apparatus to measure the locomotion for thirty minutes. (MUROMACHI KIKAI, ANIMEX AUTO MK-110) The effects of haloperidol and chlorpromazine were also evaluated as controls.

[4] = male ddY mice, methamphetamine 2 mg/kg sc 15 min before compound, locomotion measured for 30 min

For `CN(C)CCCN1c2ccccc2Sc2ccc(Cl)cc21` [Chlorpromazine, chlorpromazine], the “catalepsy provoking effect / extrapyramidal side effect (in words)” value ([1]; male ddY mice) was “strong catalepsy provoking effect”, the TD50 [2] was 6.2 mg/kg and the ED50 [3] was 1.05 mg/kg. For the same compound, the “anti-methamphetamine activity, that is the anti-psychotic activity (in words)” value (“anti-methamphetamine activity” below) ([3]; male ddY mice) was “have the anti-methamphetamine activity”.
In the case of `c1ccc2c(N3CCN(CCCCn4c5ccccc5c5ccccc54)CC3)nsc2c1` [Example 2, 9-[4-[4-(1,2-benzisothiazol-3-yl)-1-piperazinyl]butyl]carbazole], the “catalepsy provoking effect / extrapyramidal side effect (in words)” value ([1]; mouse, in vivo) is reported as “very weak extrapyramidal side effect”, the TD50 [2] is reported as over 100 mg/kg and the ED50 [3, 4] is reported as 1.15 mg/kg. The “anti-methamphetamine activity” value ([3]; male ddY mice) was “have the anti-methamphetamine activity”.
In the case of `O=c1ccc2ccccc2n1CCCN1CCN(c2nsc3ccccc23)CC1` [Example 5, 1-[4-[4-(1,2-benzisothiazol-3-yl)-1-piperazinyl]propyl]-2(1H)-quinolinone], the “catalepsy provoking effect / extrapyramidal side effect (in words)” value ([1]; mouse, in vivo) is reported as “very weak extrapyramidal side effect”, the TD50 [2] is reported as 83.3 mg/kg and the ED50 [3, 4] is reported as 0.92 mg/kg. For the same compound, the “anti-methamphetamine activity” value ([3]; male ddY mice) was “have the anti-methamphetamine activity”.
In the case of `O=C(CCCN1CCC(O)(c2ccc(Cl)cc2)CC1)c1ccc(F)cc1` [Haloperidol, haloperidol], the “catalepsy provoking effect / extrapyramidal side effect (in words)” value ([1]; male ddY mice) is reported as “strong catalepsy provoking effect”, the TD50 [2] is reported as 1.3 mg/kg and the ED50 [3] is reported as 0.16 mg/kg. The “anti-methamphetamine activity” value ([3]; male ddY mice) was “have the anti-methamphetamine activity”.
